Molecular target: T1, MAN2B2 (Homo sapiens, UniProt Q9Y2E5)
T1 construct: expressed in transfected cells
T1 sequence (Q9Y2E5 24-1009): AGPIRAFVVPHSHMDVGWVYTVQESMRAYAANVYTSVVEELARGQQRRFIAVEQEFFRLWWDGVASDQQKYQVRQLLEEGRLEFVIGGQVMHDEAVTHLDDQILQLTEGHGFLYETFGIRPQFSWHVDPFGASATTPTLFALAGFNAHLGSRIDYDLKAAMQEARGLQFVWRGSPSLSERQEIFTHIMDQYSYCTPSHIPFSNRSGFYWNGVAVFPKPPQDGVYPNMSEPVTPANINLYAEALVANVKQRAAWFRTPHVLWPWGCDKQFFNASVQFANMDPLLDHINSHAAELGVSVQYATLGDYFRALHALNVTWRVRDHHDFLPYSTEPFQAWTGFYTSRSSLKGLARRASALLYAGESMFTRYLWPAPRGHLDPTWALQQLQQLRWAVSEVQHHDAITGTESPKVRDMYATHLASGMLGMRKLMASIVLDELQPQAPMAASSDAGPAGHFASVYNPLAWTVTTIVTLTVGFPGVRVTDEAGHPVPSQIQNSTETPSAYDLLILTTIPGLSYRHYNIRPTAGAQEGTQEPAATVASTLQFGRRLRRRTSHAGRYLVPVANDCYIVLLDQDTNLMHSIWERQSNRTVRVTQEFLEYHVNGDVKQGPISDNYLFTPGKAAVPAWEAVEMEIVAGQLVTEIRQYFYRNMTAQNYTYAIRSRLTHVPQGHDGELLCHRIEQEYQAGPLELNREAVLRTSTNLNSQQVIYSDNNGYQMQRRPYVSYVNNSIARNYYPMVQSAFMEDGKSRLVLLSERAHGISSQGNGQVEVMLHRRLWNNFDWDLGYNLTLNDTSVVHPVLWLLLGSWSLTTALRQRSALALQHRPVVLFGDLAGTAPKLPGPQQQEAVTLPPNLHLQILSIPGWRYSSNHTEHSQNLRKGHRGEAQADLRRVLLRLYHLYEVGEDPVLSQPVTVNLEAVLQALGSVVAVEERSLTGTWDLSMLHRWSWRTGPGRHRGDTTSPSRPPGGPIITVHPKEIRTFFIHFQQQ
Experiment: 4-MU-α-man activity assay in overexpressed cell lysates
Format: biochemical

Which “activity when the buffer was enriched with CoCl2” value (CoCl2) does the source give for `O=S1(=O)N[C@@H]2[C@@H](O)[C@@H](O)[C@H](O)[C@@H](CO)[C@H]2O1` [compound 6, 1,6-trans-manno-cyclosulfamidate] here?
The value was “no activity”.

And the IC50 (Zn2+)?
The IC50 was over 1000 µM.

Source: article PMC10685318, “Trans-cyclosulfamidate mannose-configured cyclitol allows isoform-dependent inhibition of GH47 α-D-mannosidases through a bump–hole strategy” (Chemical Science, 2023)
